The source made the active and inactive calls.
What was measured:
[1] = target: Trypsin (Sus scrofa, UniProt P00761); assay: trypsin protease activity blockade – biochemical, quenched peptide fluorescence, cherry-pick, selectivity assay for Rce1 protease inhibitor project, dose response (AID 488789)
[2] = target: Peroxisome proliferator-activated receptor gamma/Nuclear receptor coactivator 1 (Homo sapiens, UniProt P37231); assay: (§1) TR-FRET dose response biochemical High Throughput Screening assay for agonists of the steroid receptor coactivator 1 (SRC-1) recruitment by the peroxisome proliferator-activated receptor gamma (PPAR gamma): non-selective agonists. [Related pubchem assays (depositor defined):AID1300, AID1808, AID504735, AID631]; format: protein assay
[3] = target: Peroxisome proliferator-activated receptor gamma/Nuclear receptor coactivator 3 (Homo sapiens, UniProt P37231); assay: as §1, with “3 (SRC-3)” for “1 (SRC-1)”, “assays: 1301 (Confirmation screen.), 1048 (Primary screen.)]” for “assays (depositor defined):AID1300, AID1808, AID504735, AID631]”; format: functional
[4] = target: Peroxisome proliferator-activated receptor gamma/Nuclear receptor coactivator 2 (Homo sapiens, UniProt P37231); assay: TR-FRET dose response biochemical High Throughput Screening assay for agonists of the steroid receptor coactivator 2 (SRC-2) recruitment by the peroxisome proliferator-activated receptor gamma (PPAR gamma): non-selective agonists. [Related pubchem assays: 1297, 1032 ]; format: functional
[5] = target: T1, Cytochrome P450 1A2 (Homo sapiens, UniProt P05177);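 also: PubChem cytochrome P450 panel assay, CYP1A2 panel member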
T1 sequence (P05177 whole entry): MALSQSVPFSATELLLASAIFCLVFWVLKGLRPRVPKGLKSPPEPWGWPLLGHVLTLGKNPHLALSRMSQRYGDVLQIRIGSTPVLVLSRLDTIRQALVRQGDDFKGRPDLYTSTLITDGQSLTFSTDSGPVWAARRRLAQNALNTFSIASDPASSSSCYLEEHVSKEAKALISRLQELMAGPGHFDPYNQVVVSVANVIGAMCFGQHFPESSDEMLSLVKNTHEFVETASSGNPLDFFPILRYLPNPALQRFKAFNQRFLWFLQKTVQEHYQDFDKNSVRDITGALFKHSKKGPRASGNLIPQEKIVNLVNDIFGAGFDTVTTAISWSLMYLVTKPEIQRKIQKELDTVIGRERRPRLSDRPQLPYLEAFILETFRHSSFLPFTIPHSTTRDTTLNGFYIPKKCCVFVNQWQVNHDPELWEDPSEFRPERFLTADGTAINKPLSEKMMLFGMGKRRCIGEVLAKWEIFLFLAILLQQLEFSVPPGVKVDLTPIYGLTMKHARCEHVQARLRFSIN

[6] = target: Cytochrome P450 2D6 (Homo sapiens, UniProt P10635);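 also: CYP2D6 member of a cytochrome P450 panel assay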
Sequence of Cytochrome P450 2D6 (P10635 whole entry): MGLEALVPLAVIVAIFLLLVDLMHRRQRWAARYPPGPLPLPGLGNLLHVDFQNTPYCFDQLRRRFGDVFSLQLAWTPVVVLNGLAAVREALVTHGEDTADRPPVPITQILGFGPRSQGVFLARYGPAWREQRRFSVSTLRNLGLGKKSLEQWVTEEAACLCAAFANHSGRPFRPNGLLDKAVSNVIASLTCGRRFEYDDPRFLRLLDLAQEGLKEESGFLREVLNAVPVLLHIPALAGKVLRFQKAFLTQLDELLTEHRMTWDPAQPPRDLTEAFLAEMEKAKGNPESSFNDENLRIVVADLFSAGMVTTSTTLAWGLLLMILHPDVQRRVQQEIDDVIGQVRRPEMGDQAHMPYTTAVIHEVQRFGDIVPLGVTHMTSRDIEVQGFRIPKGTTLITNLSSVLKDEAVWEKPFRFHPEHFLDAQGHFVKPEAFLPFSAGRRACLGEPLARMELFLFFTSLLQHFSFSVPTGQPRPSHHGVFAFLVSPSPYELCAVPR

[7] = target: T2, CAAX prenyl protease 2 (Saccharomyces cerevisiae S288c, UniProt Q03530); format: biochemical
T2 sequence (Q03530 whole entry): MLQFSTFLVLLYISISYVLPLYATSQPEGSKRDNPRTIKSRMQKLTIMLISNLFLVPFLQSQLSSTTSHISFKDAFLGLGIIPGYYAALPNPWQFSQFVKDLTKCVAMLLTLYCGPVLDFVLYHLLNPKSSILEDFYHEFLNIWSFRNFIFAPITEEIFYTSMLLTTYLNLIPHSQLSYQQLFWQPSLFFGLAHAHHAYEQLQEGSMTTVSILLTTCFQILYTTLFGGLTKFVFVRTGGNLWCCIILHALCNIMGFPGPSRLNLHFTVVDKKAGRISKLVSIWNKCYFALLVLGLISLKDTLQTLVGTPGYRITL

[8] = target: Intestinal-type alkaline phosphatase (Mus musculus, UniProt P24822); assay: PubChem AID 488785; format: functional
Sequence of Intestinal-type alkaline phosphatase (Mus musculus, UniProt P24822) (P24822 whole entry): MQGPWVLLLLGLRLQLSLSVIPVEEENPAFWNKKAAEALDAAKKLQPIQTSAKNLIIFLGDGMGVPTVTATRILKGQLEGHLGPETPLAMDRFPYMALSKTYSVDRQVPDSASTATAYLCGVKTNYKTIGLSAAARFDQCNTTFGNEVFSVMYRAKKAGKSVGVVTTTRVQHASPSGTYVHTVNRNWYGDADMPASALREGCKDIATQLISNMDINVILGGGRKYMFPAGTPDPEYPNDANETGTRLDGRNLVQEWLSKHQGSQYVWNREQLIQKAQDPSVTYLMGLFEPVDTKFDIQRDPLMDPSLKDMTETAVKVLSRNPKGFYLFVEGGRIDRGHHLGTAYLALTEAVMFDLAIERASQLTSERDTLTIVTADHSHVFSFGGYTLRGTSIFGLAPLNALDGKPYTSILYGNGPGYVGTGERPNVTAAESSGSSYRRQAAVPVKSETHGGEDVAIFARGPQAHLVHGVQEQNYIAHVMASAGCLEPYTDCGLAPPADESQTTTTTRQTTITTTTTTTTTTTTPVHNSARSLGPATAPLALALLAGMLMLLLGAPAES

[9] = target: Intestinal-type alkaline phosphatase (Homo sapiens, UniProt P09923); assay: inhibition of human intestinal alkaline phosphatase – biochemical, dose response (AID 488876); format: functional
Sequence of Intestinal-type alkaline phosphatase (Homo sapiens, UniProt P09923) (P09923 whole entry): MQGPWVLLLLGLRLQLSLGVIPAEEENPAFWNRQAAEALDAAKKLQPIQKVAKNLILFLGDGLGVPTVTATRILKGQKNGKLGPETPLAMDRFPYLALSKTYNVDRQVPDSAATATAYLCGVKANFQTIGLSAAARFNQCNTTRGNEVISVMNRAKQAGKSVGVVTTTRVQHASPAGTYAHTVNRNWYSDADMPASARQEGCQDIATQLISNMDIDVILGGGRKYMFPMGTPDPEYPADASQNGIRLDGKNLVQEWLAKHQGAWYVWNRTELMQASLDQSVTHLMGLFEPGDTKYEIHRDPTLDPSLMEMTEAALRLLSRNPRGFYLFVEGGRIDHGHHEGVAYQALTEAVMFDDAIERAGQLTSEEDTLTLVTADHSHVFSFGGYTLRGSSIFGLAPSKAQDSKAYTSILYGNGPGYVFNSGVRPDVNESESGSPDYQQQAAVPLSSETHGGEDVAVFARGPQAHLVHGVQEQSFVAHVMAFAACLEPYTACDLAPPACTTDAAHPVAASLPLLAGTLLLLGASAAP

[10] = target: T3, Alkaline phosphatase, tissue-nonspecific isozyme (Homo sapiens, UniProt P05186); assay: TNAP enzyme inhibition by screening hits, dose response, selectivity assay for mouse IAP inhibitor project, biochemical, human TNAP, uHTS hits (AID 488906); format: functional
T3 sequence (P05186 whole entry): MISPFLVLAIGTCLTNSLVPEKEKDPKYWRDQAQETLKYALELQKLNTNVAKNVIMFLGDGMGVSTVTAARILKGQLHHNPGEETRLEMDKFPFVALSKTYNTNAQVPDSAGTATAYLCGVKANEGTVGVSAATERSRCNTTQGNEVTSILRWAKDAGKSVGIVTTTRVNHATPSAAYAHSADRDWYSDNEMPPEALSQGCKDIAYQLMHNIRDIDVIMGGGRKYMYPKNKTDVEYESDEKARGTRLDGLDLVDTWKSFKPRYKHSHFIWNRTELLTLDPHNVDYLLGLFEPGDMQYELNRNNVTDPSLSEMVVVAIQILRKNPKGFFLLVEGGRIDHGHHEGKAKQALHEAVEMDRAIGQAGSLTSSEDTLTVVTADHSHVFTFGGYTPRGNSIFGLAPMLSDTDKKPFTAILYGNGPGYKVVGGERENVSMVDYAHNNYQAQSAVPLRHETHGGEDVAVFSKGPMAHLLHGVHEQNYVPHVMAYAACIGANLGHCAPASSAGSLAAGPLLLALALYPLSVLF

[11] = viability loss of HMLE_sh_eGFP cells – cell-based, luminescence, counter-screen for HMLE_sh_ECad selective toxicity project, dose response (AID 463074); format: functional, Homo sapiens;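 also: HMLE human mammary epithelial cells expressing control shRNA against eGFP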
[12] = Luminescence Cell-Based Dose Retest to Confirm Inhibitors of Cancer Stem Cells. [Related pubchem assays (depositor defined):AID2717, AID2721]; format: functional; conditions: Homo sapiens
[13] = target: T4, Voltage-gated N-type calcium channel alpha-1B subunit/Amyloid beta A4 precursor protein-binding family A member 1 (Homo sapiens, UniProt Q00975+Q02410); format: protein assay
T4 sequence (Q00975 whole entry): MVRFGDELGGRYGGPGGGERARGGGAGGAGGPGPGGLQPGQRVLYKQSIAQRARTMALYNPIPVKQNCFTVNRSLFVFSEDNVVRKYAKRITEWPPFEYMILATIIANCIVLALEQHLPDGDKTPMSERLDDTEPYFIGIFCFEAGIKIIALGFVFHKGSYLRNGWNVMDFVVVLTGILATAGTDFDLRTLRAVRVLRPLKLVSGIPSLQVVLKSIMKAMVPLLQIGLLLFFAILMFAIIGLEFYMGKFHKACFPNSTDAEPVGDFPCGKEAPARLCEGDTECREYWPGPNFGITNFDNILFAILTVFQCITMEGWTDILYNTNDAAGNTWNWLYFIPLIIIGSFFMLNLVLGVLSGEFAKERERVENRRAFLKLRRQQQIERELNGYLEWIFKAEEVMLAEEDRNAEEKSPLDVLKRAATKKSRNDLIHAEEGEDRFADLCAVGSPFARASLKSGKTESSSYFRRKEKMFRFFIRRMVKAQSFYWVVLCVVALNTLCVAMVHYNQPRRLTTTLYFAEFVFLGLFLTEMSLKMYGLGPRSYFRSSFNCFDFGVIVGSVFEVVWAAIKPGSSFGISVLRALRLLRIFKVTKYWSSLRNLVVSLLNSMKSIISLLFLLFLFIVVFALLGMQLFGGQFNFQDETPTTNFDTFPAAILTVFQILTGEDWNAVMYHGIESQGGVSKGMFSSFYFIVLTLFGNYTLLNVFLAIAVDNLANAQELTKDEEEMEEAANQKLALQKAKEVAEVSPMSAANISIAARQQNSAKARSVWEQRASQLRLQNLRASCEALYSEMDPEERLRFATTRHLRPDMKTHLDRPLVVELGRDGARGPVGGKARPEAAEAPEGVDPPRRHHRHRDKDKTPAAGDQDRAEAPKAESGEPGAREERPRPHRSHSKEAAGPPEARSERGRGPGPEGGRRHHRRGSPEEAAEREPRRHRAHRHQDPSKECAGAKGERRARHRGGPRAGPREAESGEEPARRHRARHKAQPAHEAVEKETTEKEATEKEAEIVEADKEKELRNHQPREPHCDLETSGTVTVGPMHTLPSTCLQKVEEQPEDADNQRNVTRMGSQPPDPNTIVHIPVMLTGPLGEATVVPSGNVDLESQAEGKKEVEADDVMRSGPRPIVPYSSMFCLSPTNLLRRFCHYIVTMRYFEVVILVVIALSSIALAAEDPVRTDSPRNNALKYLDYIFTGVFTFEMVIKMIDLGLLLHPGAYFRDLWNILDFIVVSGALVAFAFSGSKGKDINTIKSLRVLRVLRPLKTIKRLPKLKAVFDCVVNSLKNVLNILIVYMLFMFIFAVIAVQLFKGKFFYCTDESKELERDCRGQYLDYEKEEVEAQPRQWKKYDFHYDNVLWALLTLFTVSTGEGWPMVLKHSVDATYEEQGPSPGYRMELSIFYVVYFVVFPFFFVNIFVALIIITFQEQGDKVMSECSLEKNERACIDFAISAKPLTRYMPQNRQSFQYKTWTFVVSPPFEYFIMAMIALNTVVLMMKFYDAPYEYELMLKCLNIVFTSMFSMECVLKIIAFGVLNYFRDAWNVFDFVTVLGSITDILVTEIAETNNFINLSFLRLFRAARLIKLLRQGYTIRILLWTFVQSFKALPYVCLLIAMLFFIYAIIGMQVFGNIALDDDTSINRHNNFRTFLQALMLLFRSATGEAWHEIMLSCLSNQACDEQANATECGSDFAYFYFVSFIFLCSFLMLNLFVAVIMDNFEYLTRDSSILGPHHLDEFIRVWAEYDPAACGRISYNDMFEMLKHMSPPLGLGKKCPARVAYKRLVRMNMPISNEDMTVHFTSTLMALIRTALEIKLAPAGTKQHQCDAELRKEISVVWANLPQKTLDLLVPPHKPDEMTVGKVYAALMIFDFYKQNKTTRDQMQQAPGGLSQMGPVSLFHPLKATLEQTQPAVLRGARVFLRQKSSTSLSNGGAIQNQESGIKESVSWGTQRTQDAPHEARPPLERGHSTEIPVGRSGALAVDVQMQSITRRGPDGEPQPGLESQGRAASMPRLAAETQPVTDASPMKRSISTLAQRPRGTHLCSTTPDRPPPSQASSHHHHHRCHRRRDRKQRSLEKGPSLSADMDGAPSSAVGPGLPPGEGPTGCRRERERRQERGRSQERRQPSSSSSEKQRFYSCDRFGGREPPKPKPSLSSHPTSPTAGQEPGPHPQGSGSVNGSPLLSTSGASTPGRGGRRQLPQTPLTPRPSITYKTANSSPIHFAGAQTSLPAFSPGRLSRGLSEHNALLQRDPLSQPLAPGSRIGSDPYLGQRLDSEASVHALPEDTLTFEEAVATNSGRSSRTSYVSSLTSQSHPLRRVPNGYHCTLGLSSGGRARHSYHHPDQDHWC
T4 sequence (Q02410 whole entry): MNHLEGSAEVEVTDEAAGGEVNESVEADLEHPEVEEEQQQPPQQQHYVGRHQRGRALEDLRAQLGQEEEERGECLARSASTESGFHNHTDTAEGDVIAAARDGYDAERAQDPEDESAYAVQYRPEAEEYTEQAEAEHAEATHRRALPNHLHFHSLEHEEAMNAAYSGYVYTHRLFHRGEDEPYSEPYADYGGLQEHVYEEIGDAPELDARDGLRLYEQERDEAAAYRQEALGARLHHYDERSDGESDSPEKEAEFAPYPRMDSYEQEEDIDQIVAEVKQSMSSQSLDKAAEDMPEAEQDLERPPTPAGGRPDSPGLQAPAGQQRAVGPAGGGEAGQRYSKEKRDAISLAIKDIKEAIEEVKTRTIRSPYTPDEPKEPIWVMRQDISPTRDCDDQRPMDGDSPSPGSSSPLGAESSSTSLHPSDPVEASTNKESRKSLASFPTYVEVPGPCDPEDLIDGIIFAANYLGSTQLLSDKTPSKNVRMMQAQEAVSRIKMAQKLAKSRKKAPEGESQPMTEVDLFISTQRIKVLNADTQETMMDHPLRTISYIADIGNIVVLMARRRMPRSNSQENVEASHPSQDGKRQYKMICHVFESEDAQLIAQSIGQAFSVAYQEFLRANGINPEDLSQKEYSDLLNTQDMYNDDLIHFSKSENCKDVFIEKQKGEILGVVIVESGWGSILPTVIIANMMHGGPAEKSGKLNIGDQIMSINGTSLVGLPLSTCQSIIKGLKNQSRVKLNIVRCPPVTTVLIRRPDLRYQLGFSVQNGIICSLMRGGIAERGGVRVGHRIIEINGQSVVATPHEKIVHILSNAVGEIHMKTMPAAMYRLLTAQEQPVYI

[14] = target: T4, Voltage-gated N-type calcium channel alpha-1B subunit/Amyloid beta A4 precursor protein-binding family A member 1; format: protein assay; remark: listed apart in the source
[15] = tested on: Escherichia coli; assay: microbe, parasite or virus in culture
[16] = tested on: Streptococcus; assay: GAS UMAA2166 growth inhibition – luminescence, BacTiterGlo, counter-screen for streptokinase expression inhibitor project, dose response (AID 1915); format: functional, organism-based;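 also: potency for reduction of bacterial viability or growth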
[17] = target: T5, Streptokinase A (Streptococcus pyogenes serotype M1, UniProt P10520); assay: viability-normalized secreted streptokinase activity reduction – plasminogen activation absorbance, OD405, dose response (AID 1914); format: functional, Streptococcus pyogenes M1 GAS;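 also: secreted streptokinase activity via plasminogen activation per viability signal from cell pellet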
T5 sequence (P10520 whole entry): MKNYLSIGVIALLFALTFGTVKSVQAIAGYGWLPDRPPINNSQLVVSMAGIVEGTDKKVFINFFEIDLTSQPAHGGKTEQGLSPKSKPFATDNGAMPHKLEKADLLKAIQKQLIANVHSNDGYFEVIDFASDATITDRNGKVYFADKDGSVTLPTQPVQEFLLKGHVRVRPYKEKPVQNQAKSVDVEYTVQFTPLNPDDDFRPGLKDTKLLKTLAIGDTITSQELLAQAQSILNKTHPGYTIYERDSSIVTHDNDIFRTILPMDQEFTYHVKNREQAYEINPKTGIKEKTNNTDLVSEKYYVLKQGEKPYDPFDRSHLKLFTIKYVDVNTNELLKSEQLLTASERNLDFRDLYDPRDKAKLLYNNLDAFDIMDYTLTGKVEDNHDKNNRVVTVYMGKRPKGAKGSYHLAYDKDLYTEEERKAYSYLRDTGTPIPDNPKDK

[18] = tested on: Streptococcus sp. 'group A'; assay: Streptococcus pyogenes SK(-)GAS viability under kanamycin – luminescence, BacTiterGlo, confirmation, counter-screen for streptokinase expression inhibitor project, dose response (AID 1900); format: functional, organism-based
[19] = target: Cytochrome P450 2C19 (Homo sapiens, UniProt P33261); assay: Cytochrome panel assay with activity outcomes. Panel member name: p450-cyp2c19 Compounds with AC50 equal or less than 10 uM are considered active; format: functional
[20] = target: T6, Mannose-6-phosphate isomerase (Homo sapiens, UniProt P34949); assay: phosphomannose isomerase inhibition – biochemical, fluorescence intensity, confirmation (AID 1535)
T6 sequence (P34949 whole entry): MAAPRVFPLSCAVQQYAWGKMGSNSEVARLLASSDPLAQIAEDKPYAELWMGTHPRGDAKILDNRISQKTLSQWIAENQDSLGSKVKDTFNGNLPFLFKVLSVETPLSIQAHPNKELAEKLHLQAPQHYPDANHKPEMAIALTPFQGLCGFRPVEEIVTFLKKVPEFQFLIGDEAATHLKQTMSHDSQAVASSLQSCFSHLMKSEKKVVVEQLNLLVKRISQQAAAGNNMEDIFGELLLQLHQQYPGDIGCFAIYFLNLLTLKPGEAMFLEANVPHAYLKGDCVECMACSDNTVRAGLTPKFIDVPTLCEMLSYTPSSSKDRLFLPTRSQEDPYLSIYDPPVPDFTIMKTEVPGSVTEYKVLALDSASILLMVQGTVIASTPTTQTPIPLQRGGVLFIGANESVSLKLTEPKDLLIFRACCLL

[21] = target: T7, Phosphoethanolamine/phosphocholine phosphatase (Homo sapiens, UniProt Q8TCT1); assay: SAR assay for compounds that inhibit PHOSPHO1. [Related pubchem assays (depositor defined):AID1545, AID1565, AID1574]
T7 sequence (Q8TCT1 whole entry): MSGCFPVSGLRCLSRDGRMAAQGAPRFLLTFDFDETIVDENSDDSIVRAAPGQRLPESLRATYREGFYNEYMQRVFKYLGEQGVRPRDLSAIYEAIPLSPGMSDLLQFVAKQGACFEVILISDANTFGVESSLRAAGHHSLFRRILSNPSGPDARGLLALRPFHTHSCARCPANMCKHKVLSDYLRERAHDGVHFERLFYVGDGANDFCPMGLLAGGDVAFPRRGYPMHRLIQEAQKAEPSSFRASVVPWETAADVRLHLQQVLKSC

[22] = target: T8, Phosphomannomutase 2 (Homo sapiens, UniProt O15305); assay: Counter screen SAR assay for PMM2 inhibitors via a fluorescence intensity assay. [Related pubchem assays (depositor defined):AID1545, AID1574]
T8 sequence (O15305 whole entry): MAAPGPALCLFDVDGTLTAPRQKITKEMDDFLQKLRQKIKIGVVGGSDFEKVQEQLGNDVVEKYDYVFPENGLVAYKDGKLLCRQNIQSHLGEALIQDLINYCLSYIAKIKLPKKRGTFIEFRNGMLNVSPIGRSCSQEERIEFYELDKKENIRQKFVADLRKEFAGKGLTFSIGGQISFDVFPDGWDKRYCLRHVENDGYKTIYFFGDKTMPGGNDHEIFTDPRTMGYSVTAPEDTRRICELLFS

[23] = tested on: Vero; assay: cells; format: functional, cell-based; conditions: Chlorocebus sabaeus

Sequence of Trypsin (P00761 whole entry): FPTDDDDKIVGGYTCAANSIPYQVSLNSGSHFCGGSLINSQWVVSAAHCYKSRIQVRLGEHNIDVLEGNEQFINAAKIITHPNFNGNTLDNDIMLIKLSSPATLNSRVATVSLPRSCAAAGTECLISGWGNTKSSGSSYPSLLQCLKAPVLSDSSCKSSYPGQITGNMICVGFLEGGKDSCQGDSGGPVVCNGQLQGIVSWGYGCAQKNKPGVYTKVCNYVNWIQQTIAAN

With `S=c1[nH]nc(-c2ccccc2)o1` the AC50 [1] was 13.3 µM (active), the EC50 [2] was 16.2 µM (inactive) and the EC50 [3] was > 79.4 µM (not active). The EC50 [4] was 8.1 µM (active).

With `COc1ccc2c(c1)c(CC(=O)O)c(C)n2C(=O)c1ccccc1` the AC50 [5] was 12.6 µM (inconclusive) and the AC50 [6] was “inconclusive”.

In the case of `CC1CCN(C(=O)c2cc3nc(-c4ccccc4)cc(-c4ccccc4)n3n2)CC1`, the AC50 [1] is reported as > 100 µM (inactive) and the AC50 [7] is reported as 19.1 µM (active).

In the case of `FC(F)Oc1ccc(NC(S)=NC2CCSc3ccccc32)cc1` (centres undefined), the IC50 [8] is reported as 5.64 µM (active), the IC50 [9] is reported as > 100 µM (inactive) and the IC50 [10] is reported as > 100 µM (inactive).

With `COc1cccc(S(=O)(=O)NCc2ccc(C(=O)Nc3ccc(Cl)cc3)cc2)c1` the AC50 [11] was 102 µM (active) and the AC50 [12] was 35 µM (active).

For `Cc1ccc(C)c(NS(=O)(=O)c2ccc3[nH]c(=O)oc3c2)c1`, the IC50 [8] was 15.7 µM (active), the IC50 [9] was > 100 µM (inactive) and the IC50 [10] was > 100 µM (inactive).

For `CCOC(=O)c1cc(-c2ccc(F)cc2)nc2c1c(=O)[nH]c(=O)n2Cc1ccccc1`, the IC50 [13] was > 50 µM (inactive) and the IC50 [14] was > 56.8 µM (not active).

In the case of `CCOC(=O)c1sc(-c2ccccc2)cc1NC(=O)Nc1ccc([N+](=O)[O-])cc1`, the AC50 [15] is reported as 35 µM (active).

In the case of `C=CCN(CC=C)S(=O)(=O)c1ccc(NC(=S)NC(=O)C2CC2)cc1`, the AC50 [15] is reported as 29.4 µM (active), the EC50 [16] is reported as > 150 µM (not active) and the EC50 [17] is reported as > 150 µM (not active). For the same compound, the EC50 [18] was > 150 µM (not active).

In the case of `O=C(CSc1ccc2ccccc2c1Br)Nc1cccc(S(=O)(=O)NC2=NCCCCC2)c1`, the AC50 [11] is reported as 48 µM (active) and the AC50 [12] is reported as 1.92 µM (active).

In the case of `COc1ccc(N2CC(C(=O)Nc3cc(C)on3)CC2=O)cc1` (centres undefined), the AC50 [6] is reported as “inconclusive”.

With `Cc1cccnc1NC(=S)Nc1ccc(F)cc1F` the IC50 [13] was > 50 µM (inactive) and the IC50 [14] was 11.5 µM (active).

In the case of `CN(C)CCNC(=O)C1CCCNC1=O` (centres undefined), the AC50 [6] is reported as “inconclusive” and the AC50 [19] is reported as “inconclusive”.

With `Cc1cccc(-n2sc3ccccc3c2=O)c1` the IC50 [20] was 5.29 µM (active), the IC50 [21] was 2.73 µM (inactive) and the IC50 [22] was 22.3 µM (active).

In the case of `Cc1cccc(-n2sc3cc(F)ccc3c2=O)c1C`, the IC50 [20] is reported as 22.7 µM (active), the IC50 [21] is reported as 6.54 µM (inactive) and the IC50 [22] is reported as 18.3 µM (active).

For `Cc1c(Cl)cccc1-n1sc2cc([N+](=O)[O-])cc(OCC(F)(F)F)c2c1=O`, the IC50 [20] was 3.03 µM (active), the IC50 [21] was 0.555 µM (active) and the IC50 [22] was 9.06 µM (active).

For `CCOC(=O)C1(Cc2cccc(F)c2)CCN(C2CCOCC2)CC1`, the AC50 [15] was 35.1 µM (active).

For `CCCn1cnc2c(SCc3ccccc3Cl)nc(N)nc21`, the IC50 [23] was > 25 µM (active).

With `C=CCn1/c(=N/C(=O)c2ccc(S(=O)(=O)N3CCCc4ccccc43)cc2)sc2cc(S(N)(=O)=O)ccc21` the AC50 [11] was 84.8 µM (active) and the AC50 [12] was 2.01 µM (active).

With `COCc1c(C(=O)N/N=C/C2CC=CCC2)nnn1-c1nonc1N` (centres undefined) the AC50 [7] was 29.9 µM (active).
